One assay deals with MEC-1 cells. Briefly: Immunoblot of phosphorylated and total STAT3 in MEC-1 cells. The class given is cell-based. The following applies: 200 nM, 0-, 3-, 8- and 12-hour time points; reduction of p-STAT3.
For a further assay, the system named is active caspase-3. As to the kind of experiment: Caspase-3 activity assay in leukemia cells (flow cytometry). The following applies: 0 - 400 nM, 24 hours; leukemia cells in PBMCs from patients with CLL (n = 6). The class given is cell-based, human. The protocol:
Intracellular levels of activated caspase-3 were measured by using CaspGLOW™ Fluorescein Active Caspase-3 Staining Kit (Invitrogen). In brief, EC-7072 (200 nM) or DMSO-treated PBMCs from patients with CLL were incubated with FITC-DEVD-fmk for 30 minutes at 37 °c and fluorescence was next analyzed by flow cytometry in leukemia cells. For some experiments, cells were pretreated for 2 hours with the indicated doses of the broad-spectrum caspase inhibitor Z-VAD-fmk.
The induction of caspase-dependent apoptosis on primary CLL cells by EC-7072 was assessed by: • (i) incubating PBMCs isolated from patients with CLL (n = 6) following treatment with increasing concentrations of EC-7072 (0 - 400 nM) for 24 hours. Apoptosis of leukemia cells was evaluated by cytofluorometric assessment of Annexin V/PI staining to obtain percentages of apoptotic [Annexin V^+ PI^-] and dead [PI^+] cells (Figure 3A); • (ii) incubating PBMCs and T cells isolated from patients with CLL (n = 3) following treatment with EC-7072 (200 nM) for 24 hours. T cell apoptosis was evaluated by cytofluorometric assessment of Annexin V/PI staining to obtain percentages of viable [Annexin V-], apoptotic [Annexin V^+ PI^-] and dead [PI^+] cells (Figure 3B); • (iii) incubating PBMCs isolated from patients with CLL (n = 6) following treatment with EC-7072 (0 - 400 nM) for 24 hours. […]
(In flow cytometry, cells or beads pass a laser one at a time.)

Consider 1 molecule from patent EP3797781A1, “USE OF EC-7072 AND SYNERGIC COMPOSITIONS THEREOF IN TREATMENT OF CHRONIC LYMPHOCYTIC LEUKEMIA” (priority 2019, dated 2021).

For `CO[C@@H]([C@@H]1Cc2cc3cc(O[C@H]4C[C@@H](O[C@H]5C[C@@H](O)[C@H](O)[C@@H](C)O5)[C@H](O)[C@@H](C)O4)c(C)c(O)c3c(O)c2C(=O)[C@H]1O[C@H]1C[C@@H](O[C@H]2C[C@@H](O[C@H]3C[C@](C)(O)[C@H](O)[C@@H](C)O3)[C@@H](O)[C@@H](C)O2)[C@H](O)[C@@H](C)O1)[C@@H](O)C(C)=O` [EC-7072, mithramycin SK], the “levels of p-STAT3 in MEC-1” value with MEC-1 cells is reported as “further confirmed”. Moreover, the “intracellular levels of active caspase-3” value in the assay on active caspase-3 is on record as “dose-dependent increase”.
